Biological target: Metabotropic glutamate receptor 5 (Homo sapiens, UniProt P41594)
Assay: Activity at human mGluR5 assessed as effect on glutamate-induced calcium ion mobilization by FLIPR
Type: functional

Sequence of Metabotropic glutamate receptor 5 (P41594 whole entry): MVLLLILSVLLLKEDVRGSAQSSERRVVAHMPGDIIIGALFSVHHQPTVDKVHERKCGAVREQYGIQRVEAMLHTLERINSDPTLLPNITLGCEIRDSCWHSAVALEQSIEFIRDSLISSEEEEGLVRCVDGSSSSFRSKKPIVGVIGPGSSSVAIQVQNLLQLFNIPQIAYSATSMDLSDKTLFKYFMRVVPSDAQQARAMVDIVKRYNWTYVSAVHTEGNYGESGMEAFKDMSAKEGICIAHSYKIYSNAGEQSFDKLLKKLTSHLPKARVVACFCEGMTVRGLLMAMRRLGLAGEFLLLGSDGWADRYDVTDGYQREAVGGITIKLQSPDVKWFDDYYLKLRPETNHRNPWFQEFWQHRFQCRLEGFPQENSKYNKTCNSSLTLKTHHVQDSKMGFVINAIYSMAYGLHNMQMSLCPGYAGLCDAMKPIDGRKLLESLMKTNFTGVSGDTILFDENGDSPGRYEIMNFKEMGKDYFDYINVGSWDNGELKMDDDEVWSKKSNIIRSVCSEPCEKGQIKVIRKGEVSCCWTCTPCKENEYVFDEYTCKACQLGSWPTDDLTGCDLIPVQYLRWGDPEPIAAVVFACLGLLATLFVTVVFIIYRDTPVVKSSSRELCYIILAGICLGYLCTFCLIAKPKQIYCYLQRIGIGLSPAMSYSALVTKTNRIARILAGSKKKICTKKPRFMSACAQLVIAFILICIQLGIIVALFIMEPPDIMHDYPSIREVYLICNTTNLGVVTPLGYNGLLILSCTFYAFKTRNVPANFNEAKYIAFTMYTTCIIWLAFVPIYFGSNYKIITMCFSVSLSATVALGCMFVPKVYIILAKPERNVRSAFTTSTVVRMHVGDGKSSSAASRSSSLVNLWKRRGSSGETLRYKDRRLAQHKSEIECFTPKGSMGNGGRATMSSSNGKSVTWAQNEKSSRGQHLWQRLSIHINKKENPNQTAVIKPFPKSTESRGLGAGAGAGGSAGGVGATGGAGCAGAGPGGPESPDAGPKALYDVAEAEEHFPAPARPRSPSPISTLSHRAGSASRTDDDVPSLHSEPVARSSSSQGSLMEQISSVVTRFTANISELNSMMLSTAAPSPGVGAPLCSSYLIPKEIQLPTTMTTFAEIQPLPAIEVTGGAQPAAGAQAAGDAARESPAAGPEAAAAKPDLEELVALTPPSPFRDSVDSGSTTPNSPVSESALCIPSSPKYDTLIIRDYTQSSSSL

IC50 [nM]	SMILES
> 10000	Cc1cccc(C#CCOc2cccnc2)n1
> 10000	COc1cccc(OCC#Cc2nccs2)c1
115	Cc1ccc(OCC#Cc2cccc(C)n2)cc1
36	Cc1cccc(C#CCOc2ccc3c(c2)CCCC3)n1
102	Cc1cccc(C#CCOc2ccc(Cl)cc2)n1
1540	COc1cccc(OCC#Cc2ccccn2)c1
397	COc1cccc(OCC#Cc2cccc(C)n2)c1
101	Cc1cccc(C#CCOc2cccc(Cl)c2)n1
83	Cc1cccc(C#CCOc2ccc(C(C)C)cc2)n1
2490	Cc1ccc(OCC#Cc2cccc(C)n2)cn1
7930	COc1cccc(OCC#Cc2ccc(C)cn2)c1
15	Cc1cccc(C#CCOc2ccc(Cl)c(Cl)c2)n1
825	Cc1cccc(C#CCOc2cc(=O)[nH]c3ccccc23)n1
300	CCC(O)(CO)c1cc(F)cc(OCC#Cc2ccccn2)c1 (stereo not drawn)
> 10000	COc1cccc(OCC#Cc2cc(C)ccn2)c1
> 10000	COc1cccc(OCC#Cc2ncccc2C)c1
> 3000	Cc1cccc(C#CCOc2ccccc2Cl)n1
> 10000	COc1cccc(OCC#Cc2cnccn2)c1
> 10000	COc1cccc(OCC#Cc2ccncc2)c1
455	COc1ccc(OCC#Cc2cccc(C)n2)cc1
> 10000	COc1cccc(OCC#Cc2cccc(OC)n2)c1
416	Cc1cccc(C#CCOc2cccc([N+](=O)[O-])c2)n1
1490	COC(=O)c1cncc(OCC#Cc2cccc(C)n2)c1
> 10000	Cc1cccc(C#CCOc2ccccc2)n1

Biological target: Metabotropic glutamate receptor 1 (Homo sapiens, UniProt Q13255)
Sequence (Q13255 whole entry): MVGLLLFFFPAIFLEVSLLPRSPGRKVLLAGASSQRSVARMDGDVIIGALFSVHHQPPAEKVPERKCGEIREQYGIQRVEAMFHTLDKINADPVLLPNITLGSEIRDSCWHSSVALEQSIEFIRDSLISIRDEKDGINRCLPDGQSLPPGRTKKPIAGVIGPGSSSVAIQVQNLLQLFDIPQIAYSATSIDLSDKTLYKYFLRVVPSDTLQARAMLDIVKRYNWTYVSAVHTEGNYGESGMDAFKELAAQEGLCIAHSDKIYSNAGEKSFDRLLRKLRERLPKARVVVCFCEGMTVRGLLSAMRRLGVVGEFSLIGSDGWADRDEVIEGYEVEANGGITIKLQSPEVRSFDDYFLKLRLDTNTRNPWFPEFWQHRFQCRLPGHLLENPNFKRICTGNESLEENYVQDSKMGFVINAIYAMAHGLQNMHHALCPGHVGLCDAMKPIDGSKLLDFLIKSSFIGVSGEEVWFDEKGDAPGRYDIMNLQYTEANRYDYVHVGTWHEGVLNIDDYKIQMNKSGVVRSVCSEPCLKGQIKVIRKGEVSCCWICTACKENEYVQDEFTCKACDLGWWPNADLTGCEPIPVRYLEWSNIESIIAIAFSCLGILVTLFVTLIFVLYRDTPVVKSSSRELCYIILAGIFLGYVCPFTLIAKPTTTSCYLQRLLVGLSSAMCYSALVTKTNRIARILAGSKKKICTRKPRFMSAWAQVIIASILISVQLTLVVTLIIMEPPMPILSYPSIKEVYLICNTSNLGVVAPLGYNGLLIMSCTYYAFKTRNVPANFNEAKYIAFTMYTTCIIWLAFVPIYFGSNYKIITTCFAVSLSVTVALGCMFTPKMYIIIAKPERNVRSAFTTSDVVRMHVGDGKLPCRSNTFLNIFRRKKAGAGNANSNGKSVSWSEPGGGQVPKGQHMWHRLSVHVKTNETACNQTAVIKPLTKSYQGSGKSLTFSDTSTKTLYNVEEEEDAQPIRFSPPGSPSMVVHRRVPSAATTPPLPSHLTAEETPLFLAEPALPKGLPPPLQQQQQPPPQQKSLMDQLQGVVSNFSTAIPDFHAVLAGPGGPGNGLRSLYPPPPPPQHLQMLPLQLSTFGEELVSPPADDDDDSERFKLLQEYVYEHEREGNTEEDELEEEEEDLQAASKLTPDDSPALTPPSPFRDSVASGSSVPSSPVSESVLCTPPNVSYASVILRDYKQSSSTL
Assay: Activity at human mGluR1 assessed as effect on glutamate-induced calcium ion mobilization by FLIPR
Type: functional

IC50 [nM]	SMILES
> 10000	COc1cccc(OCC#Cc2ccccn2)c1
> 10000	COc1cccc(OCC#Cc2cccc(C)n2)c1
≥ 10000	CCC(O)(CO)c1cc(F)cc(OCC#Cc2ccccn2)c1 (stereo not drawn)

Tested on: not listed separately
Assay: Intrinsic clearance in rat liver microsomes
Type: ADME, Microsome

microsomal CLint [µL/min/mg]	SMILES
278	Cc1cccc(C#CCOc2ccc(Cl)c(Cl)c2)n1
